The data set in a line: recombinant UMI read abundance after kanamycin selection (control-corrected) (log10(CPM+1)); higher = more efficient recombination; extreme values may be limits of the assay; sequences stand for … in AGTGCAGAGAAAATCGGCCAGTTTTCTCTGCCTGCAGTCCGCATGCCGTGGGACCCCTTGGGTTCTAACCTGTTGCCTAGATTTATGCAGCGGACTGCCTTTCTCCCAAAGTGATAAACCGG…AGGTTGGTTTCACT; site = the 11-nt donor. The procedure, abridged:
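Sequencing read counts were converted to CPM, averaged over two replicates and scaled by control-derived factors. Results are given as log10(CPM+1). The reads covered the donor–target junction of recombinant UMIs from a pooled Escherichia coli screen of donor and donor-binding-loop pairs for the IS621 bridge recombinase.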
Turning to “AGCTCAGCATGGACCGGTTTTCCCGGTAATCCGTATTTGGG (site AGCTCAACTCC)”, the “recombinant UMI read abundance (log10)” value came out at 0. Take “AGCTCAGCATGGACCGGTTTTCCCGGTAATCCGTATTTGGG (site AGCTCACCTCC)”: the “recombinant UMI read abundance (log10)” value came to 0.00337.

For “AGCTCAGCATGGACCGGTTTTCCCGGTAATCCGTATTTGGG (site AGCTCAGCTAC)”, the “recombinant UMI read abundance (log10)” value was 0.00707. For “AGCTCAGCATGGACCGGTTTTCCCGGTAATCCGTATTTGGG (site AGCTCAGCTCA)”, the “recombinant UMI read abundance (log10)” value was 0.0167. With “AGCTCAGCATGGACCGGTTTTCCCGGTAATCCGTATTTGGG (site AGCTCAGCTCC)” the figure was 0.0108. On to “AGCTCAGCATGGACCGGTTTTCCCGGTAATCCGTATTTGGG (site AGCTCAGCTCG)”, for which the “recombinant UMI read abundance (log10)” value amounted to 0.0246. On to “AGCTCAGCATGGACCGGTTTTCCCGGTAATCCGTATTTGGG (site AGCTCAGCTCT)”, for which the “recombinant UMI read abundance (log10)” value came out at 0.337. The figure for “AGCTCAGCATGGACCGGTTTTCCCGGTAATCCGTATTTGGG (site AGCTCAGCTGC)” is 0; for “AGCTCAGCATGGACCGGTTTTCCCGGTAATCCGTATTTGGG (site AGCTCAGCTTC)” it is 0.0127; for “AGCTCAGCATGGACCGGTTTTCCCGGTAATCCGTATTTGGG (site AGCTCATCTCC)” it is 0.0384. As for “AGCTCAGCATGGACCGGTTTTCCCGGTAATCCGTATTTGGG (site AGCTCCGCTCC)”, the “recombinant UMI read abundance (log10)” value turned out to be 0.0147.

Regarding “AGCTCAGCATGGACCGGTTTTCCCGGTAATCCGTATTTGGG (site AGCTCGGCTCC)”, the “recombinant UMI read abundance (log10)” value was found to be 0.0329. Regarding “AGCTCAGCATGGACCGGTTTTCCCGGTAATCCGTATTTGGG (site AGCTCTGCTCC)”, the “recombinant UMI read abundance (log10)” value was 0.0255. As to “AGCTCAGCATGGACCGGTTTTCCCGGTAATCCGTATTTGGG (site AGCTGAGCTCC)”, the “recombinant UMI read abundance (log10)” value came to 0. The figure for “AGCTCAGCATGGACCGGTTTTCCCGGTAATCCGTATTTGGG (site AGCTTAGCTCC)” is 0.0288; for “AGCTCAGCATGGACCGGTTTTCCCGGTAATCCGTATTTGGG (site AGGTCAGCTCC)” it is 0.00833; for “AGCTCAGCATGGACCGGTTTTCCCGGTAATCCGTATTTGGG (site AGTTCAGCTCC)” it is 0.0207. With “AGCTCAGCATGGACCGGTTTTCCCGGTAATCCGTATTTGGG (site ATCTCAGCTCC)” the figure was 0.019. The figure for “AGCTCAGCATGGACCGGTTTTCCCGGTAATCCGTATTTGGG (site CGCTCAGCTCC)” is 0.299; for “AGCTCAGCATGGACCGGTTTTCCCGGTAATCCGTATTTGGG (site GGCTCAGCTCC)” it is 0.0255; for “AGCTCAGCATGGACCGGTTTTCCCGGTAATCCGTATTTGGG (site TGCTCAGCTCC)” it is 0.366.

As for “AGCTCAGCATGGACCGGTTTTCCCGGTAATCCGTATTTGGT (site AGCTCAGCTAC)”, the “recombinant UMI read abundance (log10)” value was determined as 1.27.

Consider “AGCTCAGCATGGACCGGTTTTCCCGGTAATCCGTATTTGGT (site AGCTCAGCTCC)”, for which the “recombinant UMI read abundance (log10)” value was determined as 0.0126. In the case of “AGCTCAGCATGGACCGGTTTTCCCGGTAATCCGTATTTGGT (site AGCTCAGCTGC)”, the “recombinant UMI read abundance (log10)” value came to 0. Take “AGCTCAGCATGGACCGGTTTTCCCGGTAATCCGTATTTGGT (site AGCTCAGCTTC)”: the “recombinant UMI read abundance (log10)” value came out at 0.0112.

For “AGCTCCGCATGGACCGGTTTTCCCGGTAATCCGTATTTGGG (site AGCTCAGCTCC)”, the “recombinant UMI read abundance (log10)” value was found to be 0.00775.

Consider “AGCTCCGCATGGACCGGTTTTCCCGGTAATCCGTATTTGGG (site AGCTCCGCTCC)”, for which the “recombinant UMI read abundance (log10)” value amounted to 0.211. For the sequence “AGCTCCGCATGGACCGGTTTTCCCGGTAATCCGTATTTGGG (site AGCTCGGCTCC)”, the “recombinant UMI read abundance (log10)” value worked out at 0.0125. Consider “AGCTCCGCATGGACCGGTTTTCCCGGTAATCCGTATTTGGG (site AGCTCTGCTCC)”, for which the “recombinant UMI read abundance (log10)” value was determined as 0.00972.

The values above are taken from the supplement of paper PMC11208160.
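Note: IS621 bridge recombinase in Escherichia coli cells against a fixed T5 target plasmid.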
